# Assay results published in ChEMBL document CHEMBL6078635, “Advances in diarylpyrimidines and related analogues as HIV-1 nonnucleoside reverse transcriptase inhibitors (2019-2023)” (Eur J Med Chem, 2024).
# Tests used:
# [1] = tested on: Human immunodeficiency virus 1; experiment: Antiviral activity against HIV1 harboring Y181C mutant infected in MT4 cells; type: functional, organism-based; settings: Human immunodeficiency virus 1, MT4
# [2] = tested on: Human immunodeficiency virus 1; experiment: Antiviral activity against HIV1 harboring E138K mutant infected in MT4 cells; type: functional, organism-based; settings: Human immunodeficiency virus 1, MT4
# [3] = Aqueous solubility of compound at pH 7.4 incubated for 24 hrs by LC-MS/MS analysis; type: physicochemical; settings: buffer
# [4] = tested on: Human immunodeficiency virus 1; experiment: Antiviral activity against HIV1 harboring Y188L mutant infected in MT4 cells; type: functional, organism-based; settings: Human immunodeficiency virus 1, MT4
# [5] = tested on: Human immunodeficiency virus 1; experiment: Antiviral activity against HIV1 harboring K103N/Y181C double mutant; type: functional, organism-based
# [6] = tested on: Human immunodeficiency virus 1; experiment: Antiviral activity against wild type HIV-1; type: functional, organism-based
# [7] = tested on: Human immunodeficiency virus 1; experiment: Antiviral activity against HIV-1 […] mutant; type: functional, organism-based
# [8] = tested on: Human immunodeficiency virus 1; experiment: Antiviral activity against HIV1 harboring K103N mutant infected in MT4 cells; type: functional, organism-based; settings: Human immunodeficiency virus 1, MT4
# [9] = Lipophilicity, logP of compound; type: physicochemical; settings: octanol/water
# [10] = tested on: Human immunodeficiency virus 1; experiment: Antiviral activity against HIV1 harboring F227L/V106A double mutant infected in MT4 cells; type: functional, organism-based; settings: Human immunodeficiency virus 1, MT4
# MT4 [11] = experiment: Cytotoxicity against human MT4 cells assessed as reduction in cell viability after 5 days by MTT assay; type: functional; settings: MT4, 120 h, time 5 day
# [12] = tested on: Human immunodeficiency virus 1; experiment: Antiviral activity against HIV-1 3B harboring L100I mutant infected in MT4 cells assessed as reduction in virus induced cytopathic effect incubated for 5 days by MTT method; type: functional, organism-based; settings: Human immunodeficiency virus 1, 3B, MT4, 120 h
# [13] = tested on: Human immunodeficiency virus 1; experiment: Antiviral activity against HIV1 harboring K103N mutant infected in MT4 cells assessed as inhibition of viral growth; type: functional, organism-based; settings: Human immunodeficiency virus 1, MT4
# [14] = tested on: Human immunodeficiency virus 1; experiment: Antiviral activity against HIV-1 3B harboring F227L/V106A double mutant infected in MT4 cells assessed as reduction in virus induced cytopathic effect incubated for 5 days by MTT method; type: functional, organism-based; settings: Human immunodeficiency virus 1, 3B, MT4, 120 h
# [15] = tested on: Human immunodeficiency virus 1; experiment: Antiviral activity against HIV-1 Y188L mutant infected in human MT4 cells assessed as reduction in virus induced cytopathic effect incubated for 5 days by MTT method; type: functional, organism-based; settings: Human immunodeficiency virus 1, MT4, 120 h
# [16] = tested on: Human immunodeficiency virus 1; experiment: Antiviral activity against NNRTI-resistant HIV-1 harboring Y181C mutant assessed as inhibition of viral growth; type: functional, organism-based
# [17] = tested on: Human immunodeficiency virus 1; experiment: Antiviral activity against wild type HIV-1 3B infected in human MT4 cells assessed as inhibition of virus-induced cytopathic effect measured for 5 days by MTT assay; type: functional, organism-based; settings: Human immunodeficiency virus 1, 3B, MT4, 120 h
# [18] = tested on: Human immunodeficiency virus 1; experiment: Antiviral activity against HIV-1 3B harboring E138K mutant infected in MT4 cells assessed as reduction in virus induced cytopathic effect incubated for 5 days by MTT assay; type: functional, organism-based; settings: Human immunodeficiency virus 1, 3B, MT4, 120 h
# [19] = Metabolic stability in human liver microsomes assessed as intrinsic clearance measured for 60 mins by LC-MS/MS analysis; type: ADME, Microsome; settings: read-out: CLH
# [20] = Metabolic stability in human liver microsomes assessed as half life measured upto 120 mins by LC-MS/MS analysis; type: ADME, Microsome
# MOLT-4 = experiment: Cytotoxicity against human MOLT-4 cells assessed as reduction in cell viability by MTT assay; type: functional
# MT4 [21] = experiment: Cytotoxicity against human MT4 cells assessed as reduction in cell viability; type: functional
# [22] = tested on: Human immunodeficiency virus 1; experiment: Antiviral activity against HIV-1 3B infected in human MT4 cells assessed as inhibition of viral replication incubated for 5 days by MTT assay; type: functional, organism-based; settings: Human immunodeficiency virus 1, 3B, MT4, 120 h
# MT2 = experiment: Cytotoxicity against human MT2 cells; type: functional
# [23] = Selectivity index, ratio of CC50 for cytotoxicity against human MT4 cells to EC50 for antiviral activity against wild type HIV-1 IIIB infected in human MT4 cells; type: toxicity, cell-based; settings: read-out: Selectivity Index
# [24] = biological target: Human immunodeficiency virus type 1 reverse transcriptase (Human immunodeficiency virus 1, UniProt Q72547); experiment: Inhibition of wild type HIV-1 Reverse transcriptase
Structure (SMILES),EC50 [2] [nM],EC50 [5] [nM],EC50 [6] [nM],EC50 [8] [nM],EC50 [12] [nM],EC50 [13] [nM],EC50 [14] [nM],EC50 [15] [nM],EC50 [16] [nM],EC50 [17] [nM],EC50 [18] [nM],further results
N#Cc1ccc(Nc2nc(N)cc(Oc3c(F)cc(-c4ccc(C#N)cc4)cc3F)n2)cc1,8,10,1.8,2,–,–,–,–,–,–,–,EC50 [1]: 32 nM; solubility at 24 h [3]: < 1 µg/mL; EC50 [4]: 1050 nM; EC50 [7]: 16 nM
N#Cc1ccc(Nc2nccc(Oc3ccc4ccccc4c3)n2)cc1,–,–,–,–,–,–,–,–,–,–,–,logP [9]: 5.36
Cc1cc(/C=C/C#N)cc(C)c1Oc1nc(NC2CCN(Cc3ccc(B(O)O)cc3)CC2)nc2c1COC2,17.3,77.9,7.23,7.19,–,–,–,–,–,–,–,EC50 [10]: 43.2 nM; EC50 [1]: 19.7 nM; EC50 [4]: 39.9 nM; EC50 [7]: 9.85 nM; CC50 (MT4 [11]): 25600 nM
Cc1cc(-c2ccc(F)cc2)cc(C)c1Oc1nc(NC2CCN(Cc3ccc(C(N)=O)cc3)CC2)nc2ccsc12,–,575,–,–,61.1,11.7,56.6,51.4,36.1,12.8,34.8,–
N#Cc1ccc(Nc2ncc(CO)c(Nc3c(F)cc(-c4ccc(C#N)cc4)cc3F)n2)cc1,3.5,–,0.9,–,–,–,–,–,–,–,–,EC50 [1]: 8.2 nM; CLint scaled [19]: 0.763 mL/min/kg; EC50 [4]: 162 nM; EC50 [7]: 1.9 nM; half-life [20]: 45.9 h; CC50 (MOLT-4): 225000 nM
Cc1cc(-c2ccsc2)cc(C)c1Oc1nc(NC2CCN(Cc3ccc(C(N)=O)cc3)CC2)nc2ccsc12,–,4520,–,–,925,171,854,628,741,240,739,–
Cc1cc(-c2ccoc2)cc(C)c1Oc1nc(NC2CCN(Cc3ccc(C(N)=O)cc3)CC2)nc2ccsc12,–,813,–,–,262,74.8,525,222,180,57.5,177,–
Cc1cc(-c2ccc(C#N)cc2)cc(C)c1Oc1nc(NC2CCN(Cc3ccc(C(N)=O)cc3)CC2)nc2ccsc12,–,125,–,–,10.5,6.02,97.2,23.9,18.9,9.93,23.2,–
N#Cc1ccc(Nc2nccc(C(C#N)c3ccc(-c4ccc(C#N)cc4)c(F)c3)n2)cc1 (configuration not stated),170,> 36500,–,900,–,–,–,–,–,–,–,EC50 [10]: > 25600 nM; CC50 (MT4 [21]): 36400 nM; EC50 [1]: 870 nM; EC50 [22]: 20 nM; EC50 [4]: 9810 nM; EC50 [7]: 1210 nM
Cc1cc(C#CC2CCN(Cc3ccncc3)CC2)cc(C)c1Oc1ccnc(Nc2ccc(C#N)cc2)n1,190,–,19,50,–,–,–,–,–,–,–,CC50 (MT2): 192000 nM; selectivity ratio [23]: 101
COC(=O)n1ncc(-c2cc(C)c(Oc3ccnc(Nc4ccc(C#N)cc4)n3)c(C)c2)n1,160,–,13,22,–,–,–,–,–,–,–,CC50 (MT2): > 242000 nM
N#Cc1ccc(Nc2nccc(Oc3ccc4cccnc4c3Br)n2)cc1,–,–,–,–,–,–,–,–,–,–,–,CC50 (MT2): > 299000 nM; IC50 [24]: 11 nM
Cc1cc(-c2ccc(C#N)cc2)cc(C)c1Oc1nc(NC2CCN(Cc3ccc(S(N)(=O)=O)cc3)CC2)nc2ccsc12,–,103,–,–,27.4,13.2,59.9,53.6,30.8,17,44.4,–
Cc1cc(/C=C/C#N)cc(C)c1Nc1ccnc(Nc2ccc(C#N)cc2)n1 [RILPIVIRINE],–,–,–,–,–,–,–,–,–,–,–,CC50 (MT4 [11]): > 3980 nM
